Calls of active or inactive are those of the source. The rule behind the calls is not given here.
Tested on: CCRIS mutagenicity, Ames/micronucleus/aberration tests
Test: CCRIS mutagenicity studies
[1] = Test System: AMES SALMONELLA TYPHIMURIUM, Strain/Indicator: TA98, Metabolic Activation: NONE, Method: PREINCUBATION
[2] = Test System: AMES SALMONELLA TYPHIMURIUM, Strain/Indicator: TA100, Metabolic Activation: NONE, Method: PREINCUBATION
[3] = Test System: AMES SALMONELLA TYPHIMURIUM, Strain/Indicator: TA1535, Metabolic Activation: NONE, Method: PREINCUBATION
[4] = Test System: AMES SALMONELLA TYPHIMURIUM, Strain/Indicator: TA1537, Metabolic Activation: NONE, Method: PREINCUBATION
[5] = Test System: AMES SALMONELLA TYPHIMURIUM, Strain/Indicator: TA98, Metabolic Activation: NONE, Method: STANDARD PLATE
[6] = Test System: AMES SALMONELLA TYPHIMURIUM, Strain/Indicator: TA100, Metabolic Activation: NONE, Method: STANDARD PLATE

**Q.** How did the mutagenic call (End Point: In vivo micronucleus, Test System: Peripheral blood normochromatic erythrocytes, Species: Mouse, Strain/Sex: Haploinsufficient p16(Ink4a)p19(Arf), Route: Oral) turn out when `O=C1OC(c2ccc(O)cc2)(c2ccc(O)cc2)c2ccccc21` was run?
**A.** Its mutagenic call is “active; positive”.

**Q.** What about the mutagenic call (End Point: In vivo micronucleus, Test System: Polychromatic erythrocytes, Species: Mouse, Strain/Sex: C57BL/6TacBr-[KO]p53[TSG-p53], Route: Oral) of the same compound?
**A.** Its mutagenic call is “active; positive at all days”.

**Q.** What about the mutagenic call (Test System: AMES SALMONELLA TYPHIMURIUM, Strain/Indicator: TA98, Metabolic Activation: HAMSTER, LIVER, S-9, AROCLOR 1254 (10%), Method: PREINCUBATION) of the same compound?
**A.** The mutagenic call was “inactive; negative”.

**Q.** What about the mutagenic call [1] of the same compound?
**A.** The mutagenic call was “inactive; negative”.

**Q.** What about the mutagenic call (Test System: AMES SALMONELLA TYPHIMURIUM, Strain/Indicator: TA98, Metabolic Activation: RAT, LIVER, S-9, AROCLOR 1254 (10%), Method: PREINCUBATION) of the same compound?
**A.** Its mutagenic call is “inactive; negative”.

**Q.** And the mutagenic call (Test System: AMES SALMONELLA TYPHIMURIUM, Strain/Indicator: TA100, Metabolic Activation: HAMSTER, LIVER, S-9, AROCLOR 1254 (10%), Method: PREINCUBATION)?
**A.** The mutagenic call was “inactive; negative”.

**Q.** What about the mutagenic call [2] of the same compound?
**A.** The mutagenic call was “inactive; negative”.

**Q.** What about the mutagenic call (Test System: AMES SALMONELLA TYPHIMURIUM, Strain/Indicator: TA100, Metabolic Activation: RAT, LIVER, S-9, AROCLOR 1254 (10%), Method: PREINCUBATION) of the same compound?
**A.** Its mutagenic call is “inactive; negative”.

**Q.** And the mutagenic call (Test System: AMES SALMONELLA TYPHIMURIUM, Strain/Indicator: TA1535, Metabolic Activation: HAMSTER, LIVER, S-9, AROCLOR 1254 (10%), Method: PREINCUBATION)?
**A.** The mutagenic call was “inactive; negative”.

**Q.** What about the mutagenic call [3] of the same compound?
**A.** Its mutagenic call is “inactive; negative”.

**Q.** What about the mutagenic call (Test System: AMES SALMONELLA TYPHIMURIUM, Strain/Indicator: TA1535, Metabolic Activation: RAT, LIVER, S-9, AROCLOR 1254 (10%), Method: PREINCUBATION) of the same compound?
**A.** The mutagenic call was “inactive; negative”.

**Q.** What about the mutagenic call (Test System: AMES SALMONELLA TYPHIMURIUM, Strain/Indicator: TA1537, Metabolic Activation: HAMSTER, LIVER, S-9, AROCLOR 1254 (10%), Method: PREINCUBATION) of the same compound?
**A.** Its mutagenic call is “inactive; negative”.

**Q.** What about the mutagenic call [4] of the same compound?
**A.** Its mutagenic call is “inactive; negative”.

**Q.** And the mutagenic call (Test System: AMES SALMONELLA TYPHIMURIUM, Strain/Indicator: TA1537, Metabolic Activation: RAT, LIVER, S-9, AROCLOR 1254 (10%), Method: PREINCUBATION)?
**A.** The mutagenic call was “inactive; negative”.

**Q.** What about the mutagenic call (Test System: Syrian hamster embryo cells, Strain/Indicator: HPRT/6-thioguanine, Method: Plate) of the same compound?
**A.** Its mutagenic call is “active; positive”.

**Q.** Which results are given for `COC1=CC=CC=CC1`?
**A.** mutagenic call [1]: inactive; negative; mutagenic call [5]: inactive; negative; mutagenic call (Test System: AMES SALMONELLA TYPHIMURIUM, Strain/Indicator: TA98, Metabolic Activation: RAT, LIVER, S-9, Method: PREINCUBATION): inactive; negative; mutagenic call (Test System: AMES SALMONELLA TYPHIMURIUM, Strain/Indicator: TA98, Metabolic Activation: RAT, LIVER, S-9, Method: STANDARD PLATE): inactive; negative; mutagenic call [2]: inactive; negative; mutagenic call [6]: inactive; negative; mutagenic call (Test System: AMES SALMONELLA TYPHIMURIUM, Strain/Indicator: TA100, Metabolic Activation: RAT, LIVER, S-9, Method: PREINCUBATION): inactive; negative; mutagenic call (Test System: AMES SALMONELLA TYPHIMURIUM, Strain/Indicator: TA100, Metabolic Activation: RAT, LIVER, S-9, Method: STANDARD PLATE): inactive; negative; mutagenic call [3]: inactive; negative; mutagenic call (Test System: AMES SALMONELLA TYPHIMURIUM, Strain/Indicator: TA1535, Metabolic Activation: NONE, Method: STANDARD PLATE): inactive; negative; mutagenic call (Test System: AMES SALMONELLA TYPHIMURIUM, Strain/Indicator: TA1535, Metabolic Activation: RAT, LIVER, S-9, Method: PREINCUBATION): inactive; negative; mutagenic call (Test System: AMES SALMONELLA TYPHIMURIUM, Strain/Indicator: TA1535, Metabolic Activation: RAT, LIVER, S-9, Method: STANDARD PLATE): inactive; negative; mutagenic call [4]: inactive; negative; mutagenic call (Test System: AMES SALMONELLA TYPHIMURIUM, Strain/Indicator: TA1537, Metabolic Activation: RAT, LIVER, S-9, Method: PREINCUBATION): inactive; negative; mutagenic call (Test System: AMES SALMONELLA TYPHIMURIUM, Strain/Indicator: TA1538, Metabolic Activation: NONE, Method: PREINCUBATION): inactive; negative; mutagenic call (Test System: AMES SALMONELLA TYPHIMURIUM, Strain/Indicator: TA1538, Metabolic Activation: NONE, Method: STANDARD PLATE): active; positive; mutagenic call (Test System: AMES SALMONELLA TYPHIMURIUM, Strain/Indicator: TA1538, Metabolic Activation: RAT, LIVER, S-9, Method: PREINCUBATION): inactive; negative; mutagenic call (Test System: AMES SALMONELLA TYPHIMURIUM, Strain/Indicator: TA1538, Metabolic Activation: RAT, LIVER, S-9, Method: STANDARD PLATE): active; positive; mutagenic call (Test System: CHINESE HAMSTER V-79, Strain/Indicator: V-79/8-AZAGUANINE (HGPRT), Metabolic Activation: NONE, Method: STANDARD PLATE): active; positive; mutagenic call (Test System: CHINESE HAMSTER V-79, Strain/Indicator: V-79/8-AZAGUANINE (HGPRT), Metabolic Activation: RAT, LIVER, S-9, Method: STANDARD PLATE): active; positive; mutagenic call (Test System: MOUSE LYMPHOMA, Strain/Indicator: L5178Y (TK+/TK-), Metabolic Activation: NONE): inactive; negative; mutagenic call (Test System: MOUSE LYMPHOMA, Strain/Indicator: L5178Y (TK+/TK-), Metabolic Activation: RAT, LIVER, S-9): active; positive; mutagenic call (Test System: MOUSE LYMPHOMA, Strain/Indicator: L5178Y (TK+/TK-), Metabolic Activation: RAT, LIVER, S-9, AROCLOR 1254): active; positive

**Q.** With `Cc1c2ccccc2c(CBr)c2c1ccc1ccccc12` as the compound, how does the mutagenic call [5] read?
**A.** The mutagenic call was “active; positive”.

**Q.** And the mutagenic call [6]?
**A.** The mutagenic call was “active; positive”.

**Q.** Which mutagenic call (Test System: AMES SALMONELLA TYPHIMURIUM, Strain/Indicator: TA98, Metabolic Activation: HAMSTER, LIVER, S-9, AROCLOR 1254 (30%), Method: PREINCUBATION) does the source give for `CCCCCCCC(=O)Cl` here?
**A.** The mutagenic call was “inactive; negative”.

**Q.** What about the mutagenic call [1] of the same compound?
**A.** Its mutagenic call is “inactive; negative”.

**Q.** And the mutagenic call (Test System: AMES SALMONELLA TYPHIMURIUM, Strain/Indicator: TA98, Metabolic Activation: RAT, LIVER, S-9, AROCLOR 1254 (30%), Method: PREINCUBATION)?
**A.** Its mutagenic call is “inactive; negative”.

**Q.** What about the mutagenic call (Test System: AMES SALMONELLA TYPHIMURIUM, Strain/Indicator: TA100, Metabolic Activation: HAMSTER, LIVER, S-9, AROCLOR 1254 (5%), Method: PREINCUBATION) of the same compound?
**A.** Its mutagenic call is “active; positive”.

**Q.** And the mutagenic call (Test System: AMES SALMONELLA TYPHIMURIUM, Strain/Indicator: TA100, Metabolic Activation: HAMSTER, LIVER, S-9, AROCLOR 1254 (10 OR 30%), Method: PREINCUBATION)?
**A.** Its mutagenic call is “inactive; negative”.

**Q.** And the mutagenic call (Test System: AMES SALMONELLA TYPHIMURIUM, Strain/Indicator: TA100, Metabolic Activation: HAMSTER, LIVER, S-9, AROCLOR 1254 (30%), Method: PREINCUBATION)?
**A.** Its mutagenic call is “active; positive”.

**Q.** What about the mutagenic call [2] of the same compound?
**A.** Its mutagenic call is “inactive; negative”.

**Q.** And the mutagenic call (Test System: AMES SALMONELLA TYPHIMURIUM, Strain/Indicator: TA100, Metabolic Activation: RAT, LIVER, S-9, AROCLOR 1254 (5 OR 10%), Method: PREINCUBATION)?
**A.** The mutagenic call was “inactive; negative”.

**Q.** What about the mutagenic call (Test System: AMES SALMONELLA TYPHIMURIUM, Strain/Indicator: TA100, Metabolic Activation: RAT, LIVER, S-9, AROCLOR 1254 (30%), Method: PREINCUBATION) of the same compound?
**A.** Its mutagenic call is “inactive; negative”.

**Q.** And the mutagenic call (Test System: AMES SALMONELLA TYPHIMURIUM, Strain/Indicator: TA1535, Metabolic Activation: HAMSTER, LIVER, S-9, AROCLOR 1254 (5, 10 OR 30%), Method: PREINCUBATION)?
**A.** The mutagenic call was “inactive; negative”.

**Q.** And the mutagenic call (Test System: AMES SALMONELLA TYPHIMURIUM, Strain/Indicator: TA1535, Metabolic Activation: RAT, LIVER, S-9, AROCLOR 1254 (5, 10 OR 30%), Method: PREINCUBATION)?
**A.** Its mutagenic call is “inactive; negative”.

**Q.** `Cc1cc2c(cc1C)-c1cc3ccccc3c3cccc-2c13` was tested. Which mutagenic call (Test System: AMES SALMONELLA TYPHIMURIUM, Strain/Indicator: TA100, Metabolic Activation: RAT, LIVER, S-9, AROCLOR 1254) did it give?
**A.** The mutagenic call was “active; positive”.

— PubChem BioAssay AID1259407 (Chemical Carcinogenesis Research Information System (CCRIS), 2018)
